The text below walks through data of PubChem BioAssay (NCI).

Test systems include PC-3 prostate; UACC-257 melanoma; NCI/ADR-RES ovarian; SW-620 colon; HCC-2998 colon; OVCAR-5 ovarian; HT29 colon; U251 CNS; K-562 leukemia; A498 renal.
What all share (experiment): NCI tumour cell line growth inhibition, 48 h

“And” between values parts separate entries of the source, which are not always exact repeats. Identical values can stand only once.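 Each compound was tested at five concentrations against cells in 96-well plates for 48 hours. Here, GI50 denotes the concentration required for 50% inhibition of growth. At the TGI there is no net growth.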 Bounds are passed on as bounds.

Take `O=C(NC(=S)Nc1ccc(-c2nc3ccccc3[nH]2)cc1)c1ccc2ccccc2c1`: the GI50 was 3.26 µM in the assay with PC-3 prostate; 5.59 µM in the assay with UACC-257 melanoma; 4.52 µM in the assay on NCI/ADR-RES ovarian; 4.2 µM in the assay with SW-620 colon; 7.15 µM in the assay on HCC-2998 colon; 3.75 µM in the assay on OVCAR-5 ovarian. Besides, the GI50 is 4.61 µM in the assay on HT29 colon, 3.62 µM with U251 CNS, 13.3 µM with K-562 leukemia and 10.7 µM with A498 renal. Besides, the TGI with PC-3 prostate is 35.5 µM; in the assay on UACC-257 melanoma, above 100 µM; with NCI/ADR-RES ovarian, above 100 µM; in the assay with SW-620 colon, above 100 µM; in the assay on HCC-2998 colon it was above 100 µM; in the assay on OVCAR-5 ovarian, 16.6 µM. The TGI in the assay on HT29 colon is above 100 µM; in the assay on U251 CNS it was 18.1 µM; in the assay on K-562 leukemia it was above 100 µM; in the assay with A498 renal, 57.8 µM.

Consider `COc1ncnn2ccc(-c3cnc4nc(C)n(Cc5nnc(C(C)F)o5)c4c3)c12` (configuration not stated), for which the GI50 is 0.281 µM with PC-3 prostate; 0.265 µM in the assay on UACC-257 melanoma; 0.409 µM in the assay on NCI/ADR-RES ovarian; 0.0511 µM in the assay on SW-620 colon; 0.308 µM with HCC-2998 colon; 0.343 µM in the assay on OVCAR-5 ovarian. The GI50 with HT29 colon is 0.253 µM; with U251 CNS, 0.249 µM; in the assay on K-562 leukemia, 0.163 µM; in the assay on A498 renal, 0.163 µM. The TGI in the assay with PC-3 prostate is above 100 µM; with UACC-257 melanoma it was above 100 µM; in the assay on NCI/ADR-RES ovarian, above 29.2 µM; in the assay on SW-620 colon, above 100 µM; in the assay on HCC-2998 colon, 2.71 µM; in the assay on HT29 colon it was 0.631 µM. The TGI in the assay on U251 CNS was above 100 µM; in the assay with K-562 leukemia it was above 100 µM; with A498 renal, 0.62 µM.

Turning to `CC(C)[C@]12O[C@H]1[C@@H]1O[C@]13[C@]1(O[C@H]1C[C@H]1C4=C(CC[C@@]13C)C(=O)OC4)[C@@H]2OC(=O)OC(C)(C)C`, the GI50 is 0.0238 µM with PC-3 prostate; 0.0176 µM in the assay on UACC-257 melanoma; 0.0286 µM in the assay with NCI/ADR-RES ovarian; below 0.01 µM in the assay on SW-620 colon; 0.0166 µM in the assay on HCC-2998 colon; 0.0419 µM with OVCAR-5 ovarian. In addition, the GI50 in the assay on HT29 colon is below 0.0121 µM; with U251 CNS it was 0.0253 µM; in the assay on K-562 leukemia it was 0.0199 µM; in the assay with A498 renal, 0.0145 µM. In addition, the TGI with PC-3 prostate is above 41.3 µM; with UACC-257 melanoma it was 0.0544 µM; in the assay on NCI/ADR-RES ovarian, 10.5 µM; in the assay with SW-620 colon, above 100 µM; in the assay on HCC-2998 colon, 0.064 µM; in the assay with OVCAR-5 ovarian it was above 100 µM. For the same molecule, the results for the TGI with U251 CNS, with K-562 leukemia and in the assay with A498 renal were above 100 µM, above 100 µM and 0.0454 µM, respectively.

As to `COc1cc2cc(Oc3ccc(NC(=O)Nc4ccc(F)c(C(F)(F)F)c4)cc3)c(C)nc2cc1OCCN1CCOCC1`, the GI50 in the assay on PC-3 prostate is 1.44 µM; with UACC-257 melanoma, 1.75 µM; with NCI/ADR-RES ovarian it was 2.56 µM; in the assay on SW-620 colon it was 3.34 µM; in the assay on HCC-2998 colon, 5.34 µM; with OVCAR-5 ovarian, 5.11 µM. Also, the GI50 in the assay on HT29 colon is 3.07 µM; with U251 CNS, 2.83 µM; in the assay with K-562 leukemia, 0.88 µM; in the assay with A498 renal, 2.8 µM. Also, the TGI was 10.1 µM in the assay with PC-3 prostate; 5.17 µM with UACC-257 melanoma; 12.1 µM with NCI/ADR-RES ovarian; 9.86 µM in the assay with SW-620 colon; 16.7 µM in the assay on HCC-2998 colon; 21.7 µM in the assay on OVCAR-5 ovarian. The TGI came to 21.8 µM in the assay on HT29 colon, 11.1 µM in the assay on U251 CNS, 10.3 µM in the assay on K-562 leukemia and 10.2 µM in the assay on A498 renal.

Turning to `CC[n+]1c(/C=C/c2ccc(N3CCCC3)cc2)cccc1/C=C/c1ccc(N2CCCC2)cc1`, the GI50 is 0.194 µM in the assay on PC-3 prostate; 0.19 µM in the assay on UACC-257 melanoma; 0.466 µM with NCI/ADR-RES ovarian; 0.287 µM and 0.233 µM in the assay on SW-620 colon; 0.181 µM with HCC-2998 colon; 0.476 µM with OVCAR-5 ovarian. In addition, the GI50 in the assay on HT29 colon was 0.115 µM; in the assay with U251 CNS it was 0.202 µM; in the assay with A498 renal, 0.344 µM and 0.239 µM. In addition, the TGI was 1.23 µM with PC-3 prostate; 0.773 µM in the assay on UACC-257 melanoma; 1.95 µM in the assay with NCI/ADR-RES ovarian; 1.11 µM and 1.03 µM with SW-620 colon; 0.338 µM with HCC-2998 colon; 1.48 µM in the assay on OVCAR-5 ovarian. For the same molecule, the TGI with HT29 colon was 0.375 µM; with U251 CNS, 1.04 µM; with K-562 leukemia, above 100 µM; in the assay with A498 renal it was 1.15 µM and 0.828 µM.

For `Clc1ccc(Nc2ncnc3ccccc23)cc1`, the GI50 with PC-3 prostate was 47 µM; in the assay on UACC-257 melanoma it was 49.9 µM; with NCI/ADR-RES ovarian, 53.7 µM; in the assay on SW-620 colon, above 100 µM; with HCC-2998 colon, above 100 µM; with OVCAR-5 ovarian it was above 100 µM. The GI50 in the assay on HT29 colon was 55.3 µM; with U251 CNS, 72.5 µM; in the assay with K-562 leukemia, 28 µM; in the assay with A498 renal it was 17.6 µM. Besides, the TGI in the assay with PC-3 prostate, in the assay on UACC-257 melanoma, in the assay with NCI/ADR-RES ovarian, in the assay with SW-620 colon, in the assay with HCC-2998 colon and in the assay with OVCAR-5 ovarian was above 100 µM in each case. Further, the TGI is above 100 µM in the assay on HT29 colon, above 100 µM with U251 CNS, above 100 µM in the assay on K-562 leukemia and 85.8 µM with A498 renal.

Consider `O=C1NC(=N[C@@H]2C[C@H]2c2ccccc2)S/C1=C\c1ccc2ncccc2c1`, for which the GI50 in the assay with PC-3 prostate was 3.27 µM; with UACC-257 melanoma, 5.17 µM; in the assay on NCI/ADR-RES ovarian it was 2.9 µM; in the assay on SW-620 colon it was 0.901 µM; in the assay on HCC-2998 colon it was 1.93 µM; in the assay on OVCAR-5 ovarian, 4.33 µM. The GI50 with HT29 colon is 1.12 µM; with U251 CNS, 0.875 µM; in the assay on K-562 leukemia, 1.42 µM; in the assay on A498 renal, 0.613 µM. For the same molecule, the TGI in the assay on PC-3 prostate is 9.09 µM; in the assay with UACC-257 melanoma it was 18.9 µM; in the assay on NCI/ADR-RES ovarian, 10.1 µM; with SW-620 colon, above 19.4 µM; in the assay on HCC-2998 colon, 18.4 µM; in the assay with OVCAR-5 ovarian, above 20.7 µM. Also, the TGI in the assay with HT29 colon is 9.04 µM; in the assay with U251 CNS, 6.94 µM; in the assay with K-562 leukemia it was above 25 µM; in the assay with A498 renal it was 4.48 µM.
